Experimental data: ChEMBL document CHEMBL1151734, “Cytochrome P450 2C9 type II binding studies on quinoline-4-carboxamide analogues” (J Med Chem, 2008)

Molecular target: T1, Cytochrome P450 2C9 (Homo sapiens, UniProt P11712)
Test: Inhibition of reconstituted CYP2C9
Assay type: ADME

T1 sequence (P11712 whole entry): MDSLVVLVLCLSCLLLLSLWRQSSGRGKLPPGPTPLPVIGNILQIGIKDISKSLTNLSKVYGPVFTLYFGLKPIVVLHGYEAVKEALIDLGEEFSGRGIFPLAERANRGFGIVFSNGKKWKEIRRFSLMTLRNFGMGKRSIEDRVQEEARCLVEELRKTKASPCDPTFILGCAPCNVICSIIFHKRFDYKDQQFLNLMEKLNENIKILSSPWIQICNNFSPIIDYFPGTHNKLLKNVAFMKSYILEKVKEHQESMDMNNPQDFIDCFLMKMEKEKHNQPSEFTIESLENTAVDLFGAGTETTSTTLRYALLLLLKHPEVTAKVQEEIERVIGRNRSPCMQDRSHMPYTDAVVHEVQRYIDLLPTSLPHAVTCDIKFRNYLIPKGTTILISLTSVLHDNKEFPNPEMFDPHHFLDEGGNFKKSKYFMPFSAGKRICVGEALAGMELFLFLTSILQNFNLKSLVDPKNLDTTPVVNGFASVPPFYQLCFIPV

SMILES | Ki [nM]
O=C(Nc1ccc2ccccc2c1)c1cc(-c2cccnc2)nc2ccc(Cl)cc12 | 1890
O=C(Nc1ccc2ccccc2c1)c1cc(-c2ccncc2)nc2ccc(Br)cc12 | 9
O=C(Nc1ccc2ccccc2c1)c1cc(-c2ccncc2)nc2ccc(Cl)cc12 | 12
O=C(Nc1ccc2ccccc2c1)c1cc(-c2cccnc2)nc2ccccc12 | 1150
O=C(Nc1ccc2ccccc2c1)c1cc(-c2cccnc2)nc2ccc(Br)cc12 | > 37900
O=C(Nc1cccc2ccccc12)c1cc(-c2cccnc2)nc2ccccc12 | 1250
O=C(c1cc(-c2cccnc2)nc2ccccc12)N1CCCCC1 | 9740
O=C(NCc1cccc2ccccc12)c1cc(-c2cccnc2)nc2ccccc12 | 152
O=C(NCc1cccc2ccccc12)c1cc(-c2ccccn2)nc2ccccc12 | > 43500
O=C(Nc1ccccc1)c1cc(-c2ccncc2)nc2ccccc12 | 100
Cc1cc(C)c2nc(-c3ccncc3)cc(C(=O)Nc3ccc4ccccc4c3)c2c1 | 11
O=C(c1cc(-c2ccccn2)nc2ccccc12)N1CCCCC1 | 23600
Cc1cc(C)c2nc(-c3ccccn3)cc(C(=O)Nc3ccc4ccccc4c3)c2c1 | > 20600
O=C(NCc1cccc2ccccc12)c1cc(-c2ccncc2)nc2ccccc12 | 125
O=C(Nc1cccc2ccccc12)c1cc(-c2ccccn2)nc2ccccc12 | 1320
Cc1cc(C)c2nc(-c3cccnc3)cc(C(=O)Nc3ccc4ccccc4c3)c2c1 | 8550

The remaining lines, values ahead:

Ki [nM] | SMILES
33 | O=C(Nc1ccc2ccccc2c1)c1cc(-c2ccncc2)nc2ccccc12
10700 | O=C(Nc1ccc2ccccc2c1)c1cc(-c2ccccn2)nc2ccccc12
3670 | O=C(c1cc(-c2ccncc2)nc2ccccc12)N1CCC(N2CCCC2)CC1
4060 | O=C(Nc1ccccc1)c1cc(-c2cccnc2)nc2ccccc12
76200 | O=C(c1cc(-c2ccccn2)nc2ccccc12)N1CCC(N2CCCC2)CC1
9940 | O=C(c1cc(-c2ccncc2)nc2ccccc12)N1CCCCC1
3470 | O=C(Nc1ccccc1)c1cc(-c2ccccn2)nc2ccccc12
24100 | O=C(c1cc(-c2cccnc2)nc2ccccc12)N1CCC(N2CCCC2)CC1

Molecular target: T1, Cytochrome P450 2C9
Test: Binding affinity to CYP2C9 assessed as spectral dissociation constant

SMILES | Kd [nM]
O=C(Nc1ccccc1)c1cc(-c2ccncc2)nc2ccccc12 | 325
O=C(NCc1cccc2ccccc12)c1cc(-c2ccncc2)nc2ccccc12 | 1280

Molecular target: T1, Cytochrome P450 2C9
Test: Inhibition of purified CYP2C9

SMILES | Ki [nM]
O=C(NCc1cccc2ccccc12)c1cc(-c2ccncc2)nc2ccccc12 | 113
